# Literature values in patent publication US20140141044A1, “Cord Colitis Syndrome Pathogen” (Dana-Farber Cancer Institute, Inc., priority 2012, published 2014).
# Tested on: B. enterica
# Conditions: direct or inferred from related organisms
compound,measurement,value
Cc1ncc([N+](=O)[O-])n1CCO [metronidazole],sensitivity of B. enterica,direct or inferred sensitivity
